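Method: 48-hour compound exposure of cells in 96-well plates, five concentrations, linear interpolation of endpoints. At the GI50, growth is halved.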 Activity calls are given as the source filed them. No stated cut-off is given here; in the data, active = GI50 up to about 1.1 µM and inactive = higher.
Columns and labels:
Experiment in all cases: growth of human tumour cells (NCI), 48 h
A498 = tested on: A498
ACHN = tested on: ACHN
EKVX = tested on: EKVX
Hs-578T = tested on: Hs-578T
IGROV-1 = tested on: IGROV-1
K562 = tested on: K562
M14 = tested on: M14
MDA-MB-435 = tested on: MDA-MB-435
MDA-N = tested on: MDA-N
Malme-3M = tested on: Malme-3M
NCI-H522 = tested on: NCI-H522
SF-539 = tested on: SF-539
SK-MEL-28 = tested on: SK-MEL-28
SK-MEL-5 = tested on: SK-MEL-5
SK-OV-3 = tested on: SK-OV-3
SN12C = tested on: SN12C
SNB-19 = tested on: SNB-19
SW-620 = tested on: SW-620
U-251 = tested on: U-251
CCRF-CEM = tested on: CCRF-CEM

Structure (SMILES)	GI50 (A498)	GI50 (ACHN)	GI50 (EKVX)	GI50 (Hs-578T)	GI50 (IGROV-1)	GI50 (K562)	GI50 (M14)	GI50 (MDA-MB-435)	GI50 (MDA-N)	GI50 (Malme-3M)	GI50 (NCI-H522)	GI50 (SF-539)	GI50 (SK-MEL-28)	GI50 (SK-MEL-5)	GI50 (SK-OV-3)	GI50 (SN12C)	GI50 (SNB-19)	GI50 (SW-620)	GI50 (U-251)	GI50 (CCRF-CEM)
N#CC(NCCO)=C1C(=O)c2ccccc2C1=O	> 100 µM (inactive)	> 100 µM (inactive)	> 100 µM (inactive)	> 100 µM (inactive)	> 100 µM (inactive)	> 100 µM (inactive)	> 100 µM (inactive)	> 100 µM (inactive)	> 100 µM (inactive)	> 100 µM (inactive)	> 100 µM (inactive)	> 100 µM (inactive)	> 100 µM (inactive)	> 100 µM (inactive)	> 100 µM (inactive)	> 100 µM (inactive)	> 100 µM (inactive)	> 100 µM (inactive)	> 100 µM (inactive)	–
O=C1/C(=C/c2ccccc2)CN(C(=O)CCN2CCOCC2)C/C1=C\c1ccccc1	12.9 µM (inactive)	3.49 µM (inactive)	13.6 µM (inactive)	2.6 µM (inactive)	6.04 µM (inactive)	0.388 µM (active)	2.33 µM (inactive)	1.9 µM (inactive)	2.06 µM (inactive)	2.49 µM (inactive)	2.01 µM (inactive)	2.06 µM (inactive)	1.86 µM (inactive)	2.17 µM (inactive)	10.7 µM (inactive)	2.18 µM (inactive)	5.45 µM (inactive)	0.459 µM (active)	1.79 µM (inactive)	1.38 µM (inactive)
COC(=O)Cc1c([C@H]2[C@H](CC(=O)OC)c3ccccc3N2S(=O)(=O)c2ccc(C)cc2)[nH]c2ccccc12	> 100 µM (inactive)	> 100 µM (inactive)	–	> 100 µM (inactive)	3.13 µM (inactive)	31.4 µM (inactive)	> 100 µM (inactive)	> 100 µM (inactive)	> 100 µM (inactive)	0.208 µM (active)	> 28.4 µM (inactive)	> 100 µM (inactive)	> 100 µM (inactive)	> 100 µM (inactive)	> 100 µM (inactive)	> 100 µM (inactive)	> 100 µM (inactive)	> 100 µM (inactive)	> 100 µM (inactive)	18.5 µM (inactive)
CCCCN1CCC(O)(c2cc(C(=O)O)[nH]c2-c2cc(C)no2)C1=O (stereo not drawn)	> 100 µM (inactive)	> 100 µM (inactive)	> 100 µM (inactive)	> 100 µM (inactive)	> 100 µM (inactive)	> 100 µM (inactive)	> 100 µM (inactive)	> 100 µM (inactive)	> 100 µM (inactive)	> 100 µM (inactive)	> 100 µM (inactive)	–	> 100 µM (inactive)	> 100 µM (inactive)	> 100 µM (inactive)	–	> 100 µM (inactive)	> 100 µM (inactive)	> 100 µM (inactive)	–
C=C(CCOC)CCC1CCCCC(=C)[C@H]1O (stereo partly drawn)	> 100 µM (inactive)	> 100 µM (inactive)	> 100 µM (inactive)	> 100 µM (inactive)	> 100 µM (inactive)	> 100 µM (inactive)	> 100 µM (inactive)	> 100 µM (inactive)	> 100 µM (inactive)	–	> 100 µM (inactive)	–	> 100 µM (inactive)	> 100 µM (inactive)	> 100 µM (inactive)	> 100 µM (inactive)	> 100 µM (inactive)	> 100 µM (inactive)	> 100 µM (inactive)	> 100 µM (inactive)
CC1=C(O)C(=O)C2=C(C1=O)[C@@H]([C@@H](C)C/C=C/C(C)(C)O)CC[C@@H]2C	> 100 µM (inactive)	31.4 µM (inactive)	–	48.6 µM (inactive)	69.5 µM (inactive)	41.1 µM (inactive)	61 µM (inactive)	43.2 µM (inactive)	44.8 µM (inactive)	–	21.3 µM (inactive)	> 100 µM (inactive)	–	35.2 µM (inactive)	> 100 µM (inactive)	87.1 µM (inactive)	83.6 µM (inactive)	77.4 µM (inactive)	52.7 µM (inactive)	28.8 µM (inactive)
COC(=O)C1=NN2c3ccccc3CN([C@@H](C)c3ccccc3)C(=O)[C@@H]2[C@H]1c1ccccc1	> 100 µM (inactive)	> 100 µM (inactive)	> 100 µM (inactive)	> 100 µM (inactive)	–	13.3 µM (inactive)	> 100 µM (inactive)	> 100 µM (inactive)	> 100 µM (inactive)	> 100 µM (inactive)	43.4 µM (inactive)	> 100 µM (inactive)	> 100 µM (inactive)	> 100 µM (inactive)	> 100 µM (inactive)	> 100 µM (inactive)	> 100 µM (inactive)	> 100 µM (inactive)	> 100 µM (inactive)	> 100 µM (inactive)
O=C1Nc2ccccc2/C1=N/Nc1c(F)c(F)c(F)c(F)c1F	66.8 µM (inactive)	18 µM (inactive)	35 µM (inactive)	86.7 µM (inactive)	20.5 µM (inactive)	8.63 µM (inactive)	> 100 µM (inactive)	> 100 µM (inactive)	32.2 µM (inactive)	–	14.4 µM (inactive)	48.4 µM (inactive)	> 100 µM (inactive)	58.5 µM (inactive)	> 100 µM (inactive)	36.5 µM (inactive)	> 100 µM (inactive)	43.9 µM (inactive)	> 100 µM (inactive)	4 µM (inactive)

Reference: ChEMBL document CHEMBL1201862, “PubChem BioAssay data set” (2004)
